Laboratory results reported in ChEMBL document CHEMBL1123003, “Synthesis and interaction of 5-(substituted-phenyl)-3-methyl-6,7-dihydropyrazolo[4,3-e] [1,4]diazepin-8(7H)-ones with benzodiazepine receptors in rat cerebral cortex” (J Med Chem, 1985).

These compounds were tested against GABA-A receptor; anion channel (assay: Displacement of [3H]flunitrazepam from GABA-A benzodiazepine receptor in synaptic membranes of rat cerebral cortex).
Type: cell membranes
For CNC1=Nc2ccc(Cl)cc2C(c2ccccc2)=[N+]([O-])C1 [CHLORDIAZEPOXIDE], the IC50 was 0.91 µM. For COc1ccc(C2=Nc3c(C)n[nH]c3C(=O)NC2)cc1, the IC50 was 46.5 µM. Work on Cc1n[nH]c2c1N=C(c1ccc(Br)cc1)CNC2=O yielded an IC50 of 22.3 µM. Work on Cc1n[nH]c2c1N=C(c1ccc(Cl)cc1)CNC2=O yielded an IC50 of 10 µM. Compound CCn1nc(C)c2c1C(c1ccccc1)=NCC(=O)N2 [RIPAZEPAM] has an IC50 of 0.67 µM. Cc1n[nH]c2c1N=C(c1ccc([N+](=O)[O-])cc1)CNC2=O showed an IC50 of 30.5 µM. Cc1n[nH]c2c1N=C(c1ccccc1)CNC2=O showed an IC50 of 4.4 µM. With Cc1n[nH]c2c1N=C(c1ccc(-c3ccccc3)cc1)CNC2=O the IC50 was over 100 µM.
